# From paper PMC3085635 (Bioorganic & medicinal chemistry letters, 2011)
# Where “and” joins values, the source holds several entries; their conditions need not be identical. Equal entries are not always repeated.
# What was measured:
# [1] = target: HIV-1 integrase (IN), 3′-processing (Human immunodeficiency virus type 1 group M subtype B, UniProt P12497); test: biochemical
# [2] = target: HIV-1 integrase (IN), strand transfer, wild-type (Human immunodeficiency virus type 1 group M subtype B, UniProt P12497); test: biochemical; details: Strand transfer IC50, in vitro IN assays as described in reference [4]
# [3] = test system: HIV-1 vector with G140S/Q148H integrase; format: cell-based; details: antiviral, mutant vector in cultured cells
# [4] = test system: HIV-1 integrase N155H mutant; format: biochemical
# [5] = test system: HIV-1 vector with Y143R integrase; format: cell-based; details: antiviral, cultured cells
# [6] = test system: HIV-1 integrase Y143R mutant; format: biochemical
# [7] = test system: HIV-1 vector with N155H integrase; format: cell-based; details: antiviral, cultured cells
# [8] = 3′-Processing IC50, in vitro IN assays as described in reference [4]
SMILES,"IC50 [1, 8] [µM]",further results
"O=C1c2ccc(O)c(O)c2C(=O)N1Cc1ccc(F)c(Cl)c1 [3-1, reference compound]",14 ± 3,IC50 [2]: 0.17 ± 0.06 µM
"O=C1c2ccc(O)c(O)c2C(=O)N1Cc1ccc(F)cc1 [3-2, reference compound]",8 ± 3,
"O=C1c2ccc(O)c(O)c2C(=O)N1Cc1ccc(F)c(F)c1 [3-3, reference compound]",27 ± 1,
"O=C1c2ccc(O)c(O)c2C(=O)N1Cc1cccc(Cl)c1F [3-4, reference compound]",25 ± 16,
O=C1c2ccc(O)c(O)c2C(=O)N1Cc1ccccc1 [3-5],72 ± 23,IC50 [2]: 0.4 µM and 0.39 µM
O=C1c2ccc(O)c(O)c2C(=O)N1Cc1cccc2ccccc12 [3-6],150 ± 36,IC50 [2]: 0.7 µM and 0.72 µM
O=C1c2c(c3n(c(=O)c2O)CCC3)C(=O)N1Cc1ccc(F)c(Cl)c1 [4a-1],> 111,
O=C1c2c(c3n(c(=O)c2O)CCCC3)C(=O)N1Cc1ccc(F)c(Cl)c1 [4b-1],> 111,"times less sensitive than Raltegravir to the G140S/Q148H mutation [3]: 200 times; IC50 ([1]; 3′-P IC50, metal cofactor Mg2+): > 111 µM; fold less sensitive than Raltegravir to the N155H mutation [4]: more than 2 fold; fold lower loss of potency compared to Raltegravir, Y143R vector [5]: 10 fold; cytotoxicity fold lower than 3-1 (cultured cells): 30 fold; fold less sensitive than Raltegravir to the Y143R mutation [6]: more than 10 fold; fold lower loss of potency compared to Raltegravir, N155H vector [7]: 10 fold"
O=C1c2c(c3n(c(=O)c2O)CCCCC3)C(=O)N1Cc1ccc(F)c(Cl)c1 [4c-1],> 111,
O=C1c2c(c3n(c(=O)c2O)CCCCC3)C(=O)N1Cc1ccc(F)cc1 [4c-2],> 111,
O=C1c2c(c3n(c(=O)c2O)CCCCC3)C(=O)N1Cc1ccc(F)c(F)c1 [4c-3],> 111,
O=C1c2c(c3n(c(=O)c2O)CCCCC3)C(=O)N1Cc1cccc(Cl)c1F [4c-4],> 111,
O=C1c2c(c3n(c(=O)c2O)CCCCC3)C(=O)N1Cc1ccccc1 [4c-5],> 111,IC50 [2]: > 111 µM
O=C1c2c(c3n(c(=O)c2O)CCCCC3)C(=O)N1Cc1cccc2ccccc12 [4c-6],> 111,
O=C1c2c(c3n(c(=O)c2O)CCCCCC3)C(=O)N1Cc1ccc(F)c(Cl)c1 [4d-1],> 111,
